Data taken from patent US11236120B2, “Azithromycin derivatives with epithelial barrier enhancement properties” (EpiEndo Pharmaceuticals ehf, priority 2015, dated 2022).
Converted amounts (≈) assume the structure as drawn. “Also recorded” adds a separate entry of the source.

Tests used:
[1] = tested on: Staphylococcus aureus (ATCC29213); experiment: Assay 1: antimicrobial broth dilution on microtiter plates, Staphylococcus aureus; format: cell-based; details: S. aureus (ATCC29213)
Experimental: The antimicrobial activity of each Example compound was investigated. The Minimal Inhibitory Concentration (MIC—the minimal dose required to inhibit bacterial growth) and the Minimal Bactericidal Concentration (MBC—the minimal dose required to kill bacteria) were measured for each compound for Streptococcus pneumoniae (ATCC49619), Staphylococcus aureus (ATCC29213), Bacillus megaterium (BM-11) and Escherichia coli (D-21) using an antimicrobial broth dilution method on microtiter plates. The Minimal Inhibitory Concentration (MIC) was also measured for each example compound and azithromycin with Mycobacterium avium complex (MAC). […]
The Minimal Inhibitory Concentration (MIC—the minimal dose required to inhibit bacterial growth) and the Minimal Bactericidal Concentration (MBC—the minimal dose required to kill bacteria) were measured for each compound for Streptococcus pneumoniae (ATCC49619), Staphylococcus aureus (ATCC29213), Bacillus megaterium (BM-11) and Escherichia coli (D-21) using an antimicrobial broth dilution method on 96 well microtiter plates. […]
After addition of the bacterial solution, the plates were incubated at 35° C. for 18 h. The bacterial growth of each well was then recorded and then the Minimal Inhibitory Concentration (MIC) and Minimal Bactericidal Concentration ([…]) were determined.

Mycobacterium avium = experiment: Assay 2: STC colorimetric microplate assay, M. avium; format: cell-based
[2] = tested on: Mycobacterium intracellulare; experiment: Assay 2: STC colorimetric microplate assay, M. intracellulare; format: cell-based
patients with COPD = details: double blinded clinical trials; cited from earlier work
[3] = tested on: barrier integrity in the lungs of mice under sulphur dioxide insult; experiment: Barrier integrity enhancement in the lung: HSA leakage into BAL after sulphur dioxide insult; format: in vivo
Experimental: The effect of compounds of the invention on maintenance of barrier integrity in the lungs of mice under sulphur dioxide insult was investigated.
1. 15 female mice were randomised into 3 groups of 5 mice. The three groups were: • a) Control group • b) Azithromycin treatment group • c) Investigational compound treatment group
2. The mice were pre-treated for three days with: • a) Placebo (Phosphate buffered saline—PBS) given at a dose of 10 mg/kg in an intravenous injection of 100 μl three times per week. • b) Azithromycin: given at a dose of 10 mg/kg in an intravenous injection of 100 μl three times per week. • c) The compound of Example 2: given at a dose of 10 mg/kg in an intravenous injection of 100 μl three times per week.
3. One mouse in each group was set to one side as a control. Four mice were then exposed to sulphur dioxide gas at a concentration of 200 ppm in air for a period of 60 minutes. The mice were in a cage that was inserted into a 45 L treatment box with a removable lid, a gas feed line and a gas exhaust vent. […] The gas was premixed from bottled air and bottled 200 ppm SO2 in a first box and then fed into the treatment box. The level of SO2 being fed into the treatment box can be varied by adjusting the relative flow of air and SO2 from the two source cylinders. As the sulphur dioxide concentration in this experiment was 200 ppm, it was used neat, with no additional air being mixed with it. The mice had access to food and water for the duration of the treatment.
4. 24 hours after the end of the treatment, 1 mg of human serum albumin (HSA) in 100 μl saline was injected into the tail vein of each mouse, and fluorescent dextrans (FDs) were injected into the airways. The mice were then kept sedated for 90 minutes.
5. After 90 minutes, the mice were sacrificed via exsanguination. Plasma and bronchoalveolar lavage (BAL) were collected and the lungs were processed for paraffin embedding.
6. The level of HSA in the BAL was quantified by ELISA. The ELISA test used was the one commercially available from abcam (Human Serum Albumin kit ab179887). In line with the kit manufacturer's instructions, absorbance at […] was measured. Fluorescent dextrans are quantified using a fluorescent plate reader.
The level of HSA that leaks into the lungs, as found in the BAL, is a measure of the integrity of the lung epithelial barrier.
In the placebo group, there were experimental difficulties with two of the four mice; in the Azithromycin group, there were experimental difficulties with one of the four mice; and in the investigational compound group, there were experimental difficulties with two of the four mice. Therefore, results were obtained from two mice in each of the placebo and investigational compound groups, and from three mice in the Azithromycin group.

## CC[C@H]1OC(=O)[C@H](C)[C@@H](O[C@H]2C[C@@](C)(OC)[C@@H](O)[C@H](C)O2)[C@H](C)[C@@H](O[C@@H]2O[C@H](C)C[C@H](N(C)C)[C@H]2O)[C@](C)(O)C[C@@H](C)CN(C)[C@H](C)[C@@H](O)[C@]1(C)O [Azithromycin, (2R,3S,4R,5R,8R,10R,11R,12S,13S,14R)-11-[(2S,3R,4S,6R)-4-(dimethylamino)-3-hydroxy-6-methyl-tetrahydropyran-2-yl]oxy-2-ethyl-3,4,10-trihydroxy-13-[(2R,4R,5S,6S)-5-hydroxy-4-methoxy-4,6-dimethyl-tetrahydropyran-2-yl]oxy-3,5,6,8,10,12,14-heptamethyl-1-oxa-6-azacyclopentadecan-15-one]
[1]
  MBC: 8 µg/mL (≈ 10.7 µM)
  MIC: 2 µg/mL (≈ 2.67 µM)
Mycobacterium avium; Mycobacterium avium S1002170205
  MIC: 16 µg/mL (≈ 21.4 µM)
Mycobacterium avium; Mycobacterium avium S1003050114
  MIC: 32 µg/mL (≈ 42.7 µM)
[2]; Mycobacterium intracellulare S1005200118
  MIC: 32 µg/mL (≈ 42.7 µM)
[2]; Mycobacterium intracellulare S1305150028
  MIC: 4 µg/mL (≈ 5.34 µM)
Patients with COPD
  reduction of the hospitalisation rate and disease related exacerbations: 30%
[3]; HSA in BAL by ELISA, mice, 10 mg/kg intravenous, 200 ppm SO2 for 60 minutes
  HSA level - absorbance at 600 nm: 0.346 ± 0.031
[3]; compared with control, FIG. 1
  leakage of HSA into the lung following SO2 insult: reduced compared with the control; also recorded: reduced compared with a control
[3]; relative to PBS control, mice, 10 mg/kg intravenous, 200 ppm SO2 for 60 minutes
  HSA level - absorbance at 600 nm relative to control: 0.593 ± 0.053
